Measurements as given in patent publication US20090124680A1, “USE OF PRODRUG COMPOSITION CONTAINING NAPHTHOQUINONE-BASED COMPOUND FOR MANUFACTURE OF MEDICAMENT FOR TREATMENT OR PREVENTION OF DISEASES INVOLVING METABOLIC SYNDROME” (Mazence Inc., priority 2007, published 2009).

Columns and labels:
[1] = Biochemical indices in the blood of C57BL/6 mice after administration; type: in vivo; settings: oral, 28 days; Example 14 195 mg/kg, Example 5 65 mg/kg; compared to control group; FIG. 4
Protocol: (§1) 4-week-old C57BL/6 male mice were purchased from Orient BIO Inc. (Korea). Animals were raised for 10 weeks in a breeding room maintained at a temperature of 23° C., 55% humidity, illumination of 300 to 500 lux, a 12-h light/dark (L/D) cycle, and ventilation of 10 to 18 times/hr. Experiments included animals weighing […] or higher. Animals were fed ad libitum a high-fat diet (45 kcal % from fat, D12451, Research Diet) and tap water as drinking water.
(§2) Each group of animals was administered 195 mg/kg of the prodrug compound of Example 14 (hereinafter often simply referred to as “A31”) and 65 mg/kg of the prodrug compound of Example 5 (hereinafter often simply referred to as “A32”) for 4 weeks, as set forth in Table 1 below. Observations were made on changes in body weight and food intake, with respect to a time course of administration. After administration was complete, biochemical indices were assayed including changes in adipose tissue distribution, hepatic functions, and lipid and enzyme levels.
FIGS. 4 and 5 show changes of biochemical indices in the blood of C57BL/6 mice to which the prodrug composition of Example 5 and the prodrug composition of Example 14 were administered.

[2] = Weight loss effects in obese mice: body weight, body weight gain and food intake; type: in vivo, C57BL/6 male mice; settings: high-fat diet mice; oral, 28 days; Example 14 195 mg/kg, Example 5 65 mg/kg; compared to control group; FIGS. 1 and 2
Protocol: as §1, §2

Compound	blood levels of GOT/GTP enzymes [1]	body weight (g) [2]	body weight gain (%) [2]
10,11-diacetoxy-2,6,6-trimethyl-1,2,6,7,8,9-hexahydro-phenanthro[1,2b]furan [Example 14]	decreased	significant reductions	significant reductions
CC(=O)Oc1c2c(c3ccccc3c1OC(C)=O)OC(C)(C)CC2 [Example 5, 5,6-diacetoxy-2,2-dimethyl-3,4-dihydro-2H-benzo[h]chromene]	decreased	excellent weight-loss effects	negative (−) value
